Experiments:
[1] = test system: Ba/F3 cells expressing FLT3-ITD-F691I; experiment: CellTiter-Glo cell viability; type: cell-based; details: Mus musculus, BaF3, 48 h; 2 days of treatment; read-out: Cell growth inhibition IC50
Method: (§1) A detailed protocol is provided in the online resource.
(§2) To examine the effect of ASP2215 on cell viability, MV4-11, MOLM-13, and Ba/F3 cells expressing either FLT3-ITD, FLT3-D835Y, FLT3-ITD-D835Y, FLT3-ITD-F691L or FLT3-ITD-F691I were seeded into 96-well white plates (Nunc F96 MicroWell™ Plates, white; Thermo Fisher Scientific Inc., Waltham, MA) at 1000 cells/well in Iscove’s Modified Dulbecco’s Medium, 500 cells/well in RPMI 1640 or 1000 cells/well in RPMI 1640, respectively. All cell lines were cultured overnight in a humidified incubator at 37°C with 5% CO2 in media supplemented with 10% heat-inactivated FBS.
(§3) After treatment, the CellTiter-Glo® Luminescent Cell Viability Assay (Promega) was used according to the manufacturer’s instructions and luminescence was measured using an ARVO-HTS plate reader (Perkin Elmer Inc., Waltham, MA). The assay was performed in either triplicate or quadruplicate. […] The geometric mean was calculated from three individual experiments.
(§4) The mutants of FLT3 (NM_004119), FLT3-D835Y (gat to tat), FLT3-ITD (insertion of […] at 1799 position of CDS), FLT3-ITD-F691I (ttt to att), FLT3-ITD-F691L (ttt to ctt), FLT3-ITD-D835Y were encoded into pMX-puro vector (Cell Biolabs, Inc., San Diego, CA), and transfected with FuGENE-HD (Promega) into Platinum-E cells. […]

[2] = test system: Ba/F3 cells expressing FLT3-ITD-F691 L; experiment: CellTiter-Glo cell viability; type: cell-based; details: Mus musculus, BaF3, 48 h; 2 days of treatment; read-out: Cell growth inhibition IC50
Method: as §1, §2, §3, §4

MER = molecular target: T1, MER (Homo sapiens, UniProt Q12866); experiment: Tyrosine kinase panel (off-chip MSA); type: biochemical; details: 5 nM; single experiment
T1 construct: purchased Carna Biosciences, Inc
Method: (§5) Inhibitory assay for the panel of tyrosine kinases was conducted using off-chip MSA. Percentage inhibitions were determined in a single experiment

RET = molecular target: T2, RET (Homo sapiens, UniProt P07949); experiment: Tyrosine kinase panel (off-chip MSA); type: biochemical; details: 5 nM; single experiment
T2 construct: purchased Carna Biosciences, Inc
Method: as §5

ALK = molecular target: T3, ALK (Homo sapiens, UniProt Q9UM73); experiment: Tyrosine kinase panel (off-chip MSA); type: biochemical; details: 1 nM; single experiment
T3 construct: purchased Carna Biosciences, Inc
Method: as §5

ROS = molecular target: T4, ROS (Homo sapiens, UniProt P08922); experiment: Tyrosine kinase panel (off-chip MSA); type: biochemical; details: 5 nM; single experiment
T4 construct: purchased Carna Biosciences, Inc
Method: as §5

TRKA = molecular target: T5, TRKA (Homo sapiens, UniProt P04629); experiment: Tyrosine kinase panel (off-chip MSA); type: biochemical; details: 5 nM; single experiment
T5 construct: purchased Carna Biosciences, Inc
Method: as §5

phosphorylated AXL = molecular target: T6, phosphorylated AXL (Homo sapiens, UniProt P30530); experiment: Immunoblot of phospho-AXL in MV4-11-AXL cells; type: cell-based; details: 4 h, MV4–11 cells expressing exogenous AXL
T6 construct: expressed in transfected cells; host or cells: MV4-11-AXL cells (MV4-11 exogenously expressing AXL)
T6 sequence (P30530 26-894): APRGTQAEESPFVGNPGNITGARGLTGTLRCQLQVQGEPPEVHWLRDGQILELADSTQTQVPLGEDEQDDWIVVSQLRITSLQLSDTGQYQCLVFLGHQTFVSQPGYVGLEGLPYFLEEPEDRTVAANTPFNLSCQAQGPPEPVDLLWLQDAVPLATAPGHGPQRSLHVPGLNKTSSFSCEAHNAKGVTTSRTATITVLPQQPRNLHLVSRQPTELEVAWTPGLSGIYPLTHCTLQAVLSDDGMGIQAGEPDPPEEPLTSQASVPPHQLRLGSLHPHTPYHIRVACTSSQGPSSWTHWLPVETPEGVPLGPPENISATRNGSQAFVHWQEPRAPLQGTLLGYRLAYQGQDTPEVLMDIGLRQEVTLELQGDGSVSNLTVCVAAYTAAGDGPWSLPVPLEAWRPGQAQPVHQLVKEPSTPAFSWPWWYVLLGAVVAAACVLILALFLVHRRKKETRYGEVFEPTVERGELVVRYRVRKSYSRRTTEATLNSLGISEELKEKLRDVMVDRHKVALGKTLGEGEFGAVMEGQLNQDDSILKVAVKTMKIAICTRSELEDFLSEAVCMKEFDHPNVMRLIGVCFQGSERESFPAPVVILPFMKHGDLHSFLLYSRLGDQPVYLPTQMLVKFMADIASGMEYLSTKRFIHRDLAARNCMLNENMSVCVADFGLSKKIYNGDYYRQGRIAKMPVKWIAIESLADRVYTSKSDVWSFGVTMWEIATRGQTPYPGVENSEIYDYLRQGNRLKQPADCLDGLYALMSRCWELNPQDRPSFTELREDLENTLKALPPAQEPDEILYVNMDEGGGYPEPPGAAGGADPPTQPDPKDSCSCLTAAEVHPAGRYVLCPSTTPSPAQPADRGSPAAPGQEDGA
Method: Cells were treated for 4 h prior to cell lysate preparation in RIPA buffer supplemented with phosphatase / protease inhibitors. The protein lysates were subsequently electrophoresed on 7.5% gels and transferred to PVDF membranes.
All membranes were blocked using either Blocking One or Blocking One-P (Nacalai Tesque Inc., Kyoto, Japan) for 1 h prior to an overnight incubation with primary antibody. Membranes were incubated overnight at 4°C with one of the following antibodies: anti-FLT3 antibody (Abcam), anti-phosphorylated pan-tyrosine, anti-ERK, anti-phospho-ERK, anti-STAT5, anti-phospho-STAT5, anti-AKT, anti-phospho-AKT, anti-AXL, anti-phospho-AXL, or anti-actin. The membranes were then washed with 1× TBS Tween-20 (TBS-T) Buffer (Thermo Fisher Scientific Inc., Rockford, IL) and incubated with an appropriate HRP-linked secondary antibody (Cell Signaling Technology) for 1 h at room temperature. After a final wash, ECL Western Blotting Detection Reagent ECL-prime (GE Healthcare, Fairfield, CT) were applied to the membranes and signals were detected with a CCD camera (ImageQuant LAS4000; GE Healthcare). Signal intensity was then quantified using ImageQuant™ TL software (GE Healthcare). The study was performed once in triplicate, and the mean percentage of phosphorylated protein to total protein relative to that in vehicle-treated cells was calculated.
Fig. S1. […] Protein lysates were collected in RIPA buffer and immunoblotting was performed to detect both phosphorylated and total levels of AXL (triplicate).

AXL = molecular target: T7, AXL (Homo sapiens, UniProt P30530); experiment: Kinase inhibitory assay (TK-ELISA / off-chip MSA); type: biochemical; details: 1 nM; single experiment
T7 construct: purchased Carna Biosciences, Inc
Method: These assays were conducted according to the manufacturer’s instructions. […] TK-ELISA and MSA assays were used to conduct IC50 studies for FLT3, LTK, AXL, and c-KIT; the HTRF® KinEASE™-TK assay (Sceti Medical Labo, Tokyo, Japan) was performed according to the manufacturer’s protocol to assess the IC50 value of echinoderm microtubule-associated protein-like 4-ALK (EML4-ALK; three individual experiments for each kinase).

T3 sequence (Q9UM73 19-1620): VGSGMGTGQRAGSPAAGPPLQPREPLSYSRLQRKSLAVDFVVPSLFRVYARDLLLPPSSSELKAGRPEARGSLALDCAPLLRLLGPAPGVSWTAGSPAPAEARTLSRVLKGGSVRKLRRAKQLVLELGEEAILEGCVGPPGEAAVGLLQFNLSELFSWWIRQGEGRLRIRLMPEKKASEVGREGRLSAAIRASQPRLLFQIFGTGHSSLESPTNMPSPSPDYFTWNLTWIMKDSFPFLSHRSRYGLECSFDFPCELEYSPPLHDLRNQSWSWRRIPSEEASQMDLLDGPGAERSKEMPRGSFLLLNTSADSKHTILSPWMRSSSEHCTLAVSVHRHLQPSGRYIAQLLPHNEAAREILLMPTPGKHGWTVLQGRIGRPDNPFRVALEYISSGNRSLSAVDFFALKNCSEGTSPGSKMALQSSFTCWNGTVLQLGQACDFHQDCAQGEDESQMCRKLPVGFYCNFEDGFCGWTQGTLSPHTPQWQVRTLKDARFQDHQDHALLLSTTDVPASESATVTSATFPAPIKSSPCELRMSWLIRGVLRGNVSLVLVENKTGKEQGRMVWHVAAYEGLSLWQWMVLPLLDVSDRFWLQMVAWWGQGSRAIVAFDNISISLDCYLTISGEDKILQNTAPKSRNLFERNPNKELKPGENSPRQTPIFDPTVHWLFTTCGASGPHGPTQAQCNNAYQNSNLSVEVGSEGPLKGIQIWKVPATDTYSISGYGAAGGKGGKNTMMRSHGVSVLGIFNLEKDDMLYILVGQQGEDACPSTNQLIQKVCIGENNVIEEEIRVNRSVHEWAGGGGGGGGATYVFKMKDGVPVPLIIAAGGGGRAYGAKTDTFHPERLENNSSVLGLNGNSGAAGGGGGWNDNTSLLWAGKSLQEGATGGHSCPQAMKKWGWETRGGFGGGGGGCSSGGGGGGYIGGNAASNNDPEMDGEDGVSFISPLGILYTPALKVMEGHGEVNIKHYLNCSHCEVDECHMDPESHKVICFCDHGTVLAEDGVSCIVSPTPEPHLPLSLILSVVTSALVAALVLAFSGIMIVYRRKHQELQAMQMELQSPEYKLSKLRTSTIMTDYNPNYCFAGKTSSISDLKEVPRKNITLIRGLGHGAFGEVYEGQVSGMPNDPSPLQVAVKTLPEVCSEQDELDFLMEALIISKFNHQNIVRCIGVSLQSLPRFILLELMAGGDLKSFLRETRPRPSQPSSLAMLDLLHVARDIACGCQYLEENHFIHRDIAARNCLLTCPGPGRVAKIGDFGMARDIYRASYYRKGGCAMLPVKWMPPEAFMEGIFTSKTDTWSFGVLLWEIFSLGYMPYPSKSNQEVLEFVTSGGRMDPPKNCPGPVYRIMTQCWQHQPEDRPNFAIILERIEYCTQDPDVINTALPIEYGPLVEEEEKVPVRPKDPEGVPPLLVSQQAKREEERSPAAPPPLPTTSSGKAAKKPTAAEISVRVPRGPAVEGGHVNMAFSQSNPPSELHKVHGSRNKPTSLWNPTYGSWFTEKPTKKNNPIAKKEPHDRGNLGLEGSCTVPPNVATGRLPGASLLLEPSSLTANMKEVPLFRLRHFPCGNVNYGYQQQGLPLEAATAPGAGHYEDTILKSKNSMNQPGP
T1 sequence (Q12866 21-999): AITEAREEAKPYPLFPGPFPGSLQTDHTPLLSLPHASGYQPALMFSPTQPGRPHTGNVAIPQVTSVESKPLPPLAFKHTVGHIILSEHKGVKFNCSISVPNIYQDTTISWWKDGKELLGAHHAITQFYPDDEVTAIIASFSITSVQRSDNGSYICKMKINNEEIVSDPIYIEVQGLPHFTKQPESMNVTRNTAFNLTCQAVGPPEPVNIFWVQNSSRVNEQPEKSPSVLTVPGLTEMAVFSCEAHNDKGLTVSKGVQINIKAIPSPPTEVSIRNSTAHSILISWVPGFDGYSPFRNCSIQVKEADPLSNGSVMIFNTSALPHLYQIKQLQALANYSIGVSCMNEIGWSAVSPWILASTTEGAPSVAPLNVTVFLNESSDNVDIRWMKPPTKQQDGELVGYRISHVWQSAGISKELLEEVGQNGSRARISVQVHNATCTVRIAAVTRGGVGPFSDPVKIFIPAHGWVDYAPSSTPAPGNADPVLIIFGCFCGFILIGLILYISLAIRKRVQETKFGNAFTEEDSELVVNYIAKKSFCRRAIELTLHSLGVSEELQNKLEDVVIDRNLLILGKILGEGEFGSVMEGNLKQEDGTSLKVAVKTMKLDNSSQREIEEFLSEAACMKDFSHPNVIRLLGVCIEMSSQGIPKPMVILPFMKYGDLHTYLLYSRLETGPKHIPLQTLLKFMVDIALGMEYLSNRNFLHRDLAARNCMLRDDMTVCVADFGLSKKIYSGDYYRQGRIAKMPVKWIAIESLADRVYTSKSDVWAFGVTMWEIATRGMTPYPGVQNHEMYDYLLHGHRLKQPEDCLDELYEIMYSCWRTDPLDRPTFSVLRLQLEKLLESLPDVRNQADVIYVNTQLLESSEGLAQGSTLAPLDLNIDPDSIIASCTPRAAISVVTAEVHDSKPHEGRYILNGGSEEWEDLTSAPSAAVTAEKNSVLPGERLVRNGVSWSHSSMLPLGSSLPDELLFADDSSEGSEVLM
T4 sequence (P08922 28-2347): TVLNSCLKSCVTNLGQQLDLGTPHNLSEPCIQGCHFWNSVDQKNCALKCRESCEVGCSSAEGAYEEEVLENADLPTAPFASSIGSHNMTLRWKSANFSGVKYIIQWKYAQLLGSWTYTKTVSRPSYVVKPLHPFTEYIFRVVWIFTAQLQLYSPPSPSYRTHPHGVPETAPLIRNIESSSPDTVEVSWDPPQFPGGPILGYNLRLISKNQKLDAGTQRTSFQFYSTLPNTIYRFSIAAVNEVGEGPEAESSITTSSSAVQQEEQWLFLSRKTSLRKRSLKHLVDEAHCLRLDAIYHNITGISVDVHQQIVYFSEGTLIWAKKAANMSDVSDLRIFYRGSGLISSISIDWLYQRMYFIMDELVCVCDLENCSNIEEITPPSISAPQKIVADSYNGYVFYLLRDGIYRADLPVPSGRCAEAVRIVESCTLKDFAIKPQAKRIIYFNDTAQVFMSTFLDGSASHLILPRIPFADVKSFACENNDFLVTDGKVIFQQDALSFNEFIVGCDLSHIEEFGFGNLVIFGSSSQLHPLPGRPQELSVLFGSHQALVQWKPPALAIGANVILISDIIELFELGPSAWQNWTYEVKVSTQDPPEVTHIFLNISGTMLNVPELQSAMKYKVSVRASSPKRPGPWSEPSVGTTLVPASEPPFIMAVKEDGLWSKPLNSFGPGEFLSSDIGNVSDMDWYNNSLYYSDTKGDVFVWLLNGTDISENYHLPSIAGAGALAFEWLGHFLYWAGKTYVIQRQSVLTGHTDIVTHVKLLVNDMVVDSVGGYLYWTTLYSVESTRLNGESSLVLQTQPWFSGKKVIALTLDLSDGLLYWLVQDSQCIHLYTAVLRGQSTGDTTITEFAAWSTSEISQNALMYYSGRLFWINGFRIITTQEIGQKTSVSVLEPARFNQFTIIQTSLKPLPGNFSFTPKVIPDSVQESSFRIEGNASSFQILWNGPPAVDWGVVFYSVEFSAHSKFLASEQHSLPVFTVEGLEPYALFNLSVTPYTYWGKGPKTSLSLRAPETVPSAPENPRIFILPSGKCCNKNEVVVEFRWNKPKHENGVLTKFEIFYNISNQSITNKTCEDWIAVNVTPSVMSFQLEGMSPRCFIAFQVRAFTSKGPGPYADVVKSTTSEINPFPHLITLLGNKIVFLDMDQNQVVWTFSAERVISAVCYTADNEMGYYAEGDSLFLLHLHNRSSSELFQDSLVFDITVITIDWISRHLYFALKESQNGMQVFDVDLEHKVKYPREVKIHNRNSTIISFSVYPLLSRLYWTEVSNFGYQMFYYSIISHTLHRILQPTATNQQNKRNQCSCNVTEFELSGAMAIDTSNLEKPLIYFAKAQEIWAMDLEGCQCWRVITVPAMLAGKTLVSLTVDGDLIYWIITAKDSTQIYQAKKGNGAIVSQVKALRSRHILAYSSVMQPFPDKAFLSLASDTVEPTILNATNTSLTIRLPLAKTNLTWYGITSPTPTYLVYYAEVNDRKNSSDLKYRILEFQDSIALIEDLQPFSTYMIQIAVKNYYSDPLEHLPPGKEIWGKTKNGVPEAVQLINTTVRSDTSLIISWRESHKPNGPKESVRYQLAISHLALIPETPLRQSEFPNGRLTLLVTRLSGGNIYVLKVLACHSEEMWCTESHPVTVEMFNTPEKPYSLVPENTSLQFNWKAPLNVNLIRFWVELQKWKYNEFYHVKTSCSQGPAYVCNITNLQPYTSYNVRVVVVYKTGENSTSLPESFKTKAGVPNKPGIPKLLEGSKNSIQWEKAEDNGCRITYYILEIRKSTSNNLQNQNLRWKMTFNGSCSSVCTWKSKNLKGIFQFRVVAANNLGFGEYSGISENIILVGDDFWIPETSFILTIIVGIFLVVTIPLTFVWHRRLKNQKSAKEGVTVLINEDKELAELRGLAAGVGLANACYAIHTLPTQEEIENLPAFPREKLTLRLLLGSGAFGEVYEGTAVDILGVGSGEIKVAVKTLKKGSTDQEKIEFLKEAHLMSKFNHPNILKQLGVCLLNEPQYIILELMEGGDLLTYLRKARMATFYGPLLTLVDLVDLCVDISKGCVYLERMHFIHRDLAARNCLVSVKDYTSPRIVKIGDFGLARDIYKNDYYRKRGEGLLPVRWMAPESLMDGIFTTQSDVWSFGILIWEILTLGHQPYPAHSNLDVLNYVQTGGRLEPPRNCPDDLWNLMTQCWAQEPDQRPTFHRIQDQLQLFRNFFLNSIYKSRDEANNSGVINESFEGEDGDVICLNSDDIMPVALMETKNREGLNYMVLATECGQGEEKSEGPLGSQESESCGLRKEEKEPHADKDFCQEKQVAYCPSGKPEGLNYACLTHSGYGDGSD

CCc1nc(C(N)=O)c(Nc2ccc(N3CCC(N4CCN(C)CC4)CC3)c(OC)c2)nc1NC1CCOCC1 [gilteritinib]
IC50 [1]: 0.049 µM
IC50 [2]: 0.022 µM
inhibition at 0.005 µM (MER): > 50%
inhibition at 0.005 µM (RET): > 50%
inhibition at 0.001 µM (ALK): > 50%
inhibition at 0.005 µM (ROS): > 50%
inhibition at 0.005 µM (TRKA): > 50%
Decrease of phosphorylated AXL levels (phosphorylated AXL; 1 nM): 38%
Decrease of phosphorylated AXL levels (phosphorylated AXL; 10 nM): 29%
Decrease of phosphorylated AXL levels (phosphorylated AXL; 100 nM): 22%
inhibition at 0.001 µM (AXL): > 50%
